# Results taken from ChEMBL document CHEMBL1139088, “Antihyperglycemic and antidyslipidemic agent from Aegle marmelos” (2007).
# Activity calls are given as the source filed them. No cut-off for these calls is given here.
# Columns and labels:
# [1] = system: Rattus norvegicus; assay: Increase in blood glucose levels in Sprague-Dawley Albino rat at 100 mg/kg, po after 5 hrs; format: functional
# [2] = system: Rattus norvegicus; assay: Increase in blood glucose levels in Sprague-Dawley Albino rat at 100 mg/kg, po after 24 hrs; format: functional
# [3] = system: Hamster; assay: Increase in ratio of plasma HDL to plasma cholesterol levels at 108 mg/kg after 7 days; format: functional, Cricetinae
# [4] = system: Hamster; assay: Decrease in plasma glycerol levels in dyslipidemic hamster model at 108 mg/kg after 7 days; format: functional, Cricetinae; set-up: scale not given: the % may be the effect or the level left
# [5] = system: Hamster; assay: Decrease in plasma cholesterol levels in dyslipidemic hamster model at 108 mg/kg after 7 days; format: functional, Cricetinae; set-up: scale not given: the % may be the effect or the level left
# [6] = system: Hamster; assay: Decrease in plasma FFA levels in dyslipidemic hamster model at 108 mg/kg after 7 days; format: functional, Cricetinae; set-up: scale not given: the % may be the effect or the level left
# [7] = system: Hamster; assay: Increase in plasma HDL-C levels in dyslipidemic hamster model at 108 mg/kg after 7 days; format: functional, organism-based; set-up: dose 108 mg/kg; conditions: Cricetinae
# [8] = system: Hamster; assay: Decrease in plasma triglyceride levels in dyslipidemic hamster model at 108 mg/kg after 7 days; format: functional, Cricetinae; set-up: scale not given: the % may be the effect or the level left
# [9] = system: Hamster; assay: Decrease in plasma glycerol levels in dyslipidemic hamster model at 30 mg/kg after 7 days; format: functional, Cricetinae; set-up: scale not given: the % may be the effect or the level left
# [10] = species: Homo sapiens; assay: Inhibition of PTPase
# [11] = system: Hamster; assay: Decrease in plasma triglyceride levels in dyslipidemic hamster model at 30 mg/kg after 7 days; format: functional, Cricetinae; set-up: scale not given: the % may be the effect or the level left
# [12] = system: Hamster; assay: Decrease in plasma cholesterol levels in dyslipidemic hamster model at 50 mg/kg after 7 days; format: functional, Cricetinae; set-up: scale not given: the % may be the effect or the level left
# [13] = system: Hamster; assay: Increase in plasma HDL-C levels in dyslipidemic hamster model at 50 mg/kg after 7 days; format: functional, Cricetinae
# [14] = system: Hamster; assay: Decrease in plasma glycerol levels in dyslipidemic hamster model at 50 mg/kg after 7 days; format: functional, Cricetinae; set-up: scale not given: the % may be the effect or the level left
# [15] = system: Hamster; assay: Decrease in plasma cholesterol levels in dyslipidemic hamster model at 30 mg/kg after 7 days; format: functional, Cricetinae; set-up: scale not given: the % may be the effect or the level left
# [16] = species: Homo sapiens; assay: Inhibition of alpha-glucosidase
# [17] = system: Hamster; assay: Increase in plasma HDL-C levels in dyslipidemic hamster model at 30 mg/kg after 7 days; format: functional, organism-based; set-up: dose 30 mg/kg; conditions: Cricetinae
# [18] = system: Hamster; assay: Decrease in plasma triglyceride levels in dyslipidemic hamster model at 50 mg/kg after 7 days; format: functional, Cricetinae; set-up: scale not given: the % may be the effect or the level left
# [19] = system: Hamster; assay: Increase in ratio of plasma HDL to plasma cholesterol levels at 30 mg/kg after 7 days; format: functional, Cricetinae
# [20] = system: Hamster; assay: Increase in ratio of plasma HDL to plasma cholesterol levels at 50 mg/kg after 7 days; format: functional, Cricetinae
# [21] = system: Hamster; assay: Decrease in plasma FFA levels in dyslipidemic hamster model at 50 mg/kg after 7 days; format: functional, Cricetinae; set-up: scale not given: the % may be the effect or the level left
# [22] = system: Hamster; assay: Decrease in plasma FFA levels in dyslipidemic hamster model at 30 mg/kg after 7 days; format: functional, Cricetinae; set-up: scale not given: the % may be the effect or the level left
structure (smiles),measurement,setting,value
CN(C)C(=N)NC(=N)N [METFORMIN],Activity,[1],23.5%
same,Activity,[2],26.5%
CC(C)OC(=O)C(C)(C)Oc1ccc(C(=O)c2ccc(Cl)cc2)cc1 [FENOFIBRATE],Activity,[3],10%
same,Activity,[4],36%
same,Activity,[5],18%
same,Activity,[6],20%
same,Activity,[7],inactive
same,Activity,[8],42%
COc1ccc([C@@H](O)CNC(=O)/C=C/c2ccccc2)cc1 [AEGELINE],Activity,[9],23%
same,Activity,[10],inactive
same,Activity,[11],48%
same,Activity,[12],24%
same,Activity,[13],28%
same,Activity,[14],31%
same,Activity,[15],17%
same,Activity,[16],inactive
same,Activity,[1],12.9%
same,Activity,[17],inactive
same,Activity,[18],55%
same,Activity,[19],20%
same,Activity,[2],16.9%
same,Activity,[20],66%
same,Activity,[21],24%
same,Activity,[22],14%
